Data taken from US20250268826A1, “IONIZABLE LIPIDOID COMPOSITIONS AND THERAPEUTIC USES THEREOF” (Flagship Pioneering Innovations VII, LLC, priority 2023, published 2025).

Columns and labels:
[1] = LNP Zeta potential measured using a Zetasizer (Malvern); assay type: physicochemical; details: for Zeta potential: hEPO mRNA, N:P 6; for Zeta potential (mV): LNP with hEPO mRNA, N:P ratio 6
[2] = Encapsulation efficiency (EE %) by fluorescence based Ribogreen assay; assay type: physicochemical
[3] = LNP size and polydispersity index (PDI) by dynamic light scattering (DLS); assay type: physicochemical
[4] = Apparent pKa of the LNPs by fluorescence based TNS assay; details: Vaccine Study 2; LNP with spike mRNA, 50/10/38.5/1.5 mol % ionizable lipid:helper lipid:cholesterol:DMG-PEG2k, N-to-P ratio 6
[5] = Vaccine Study 2, LNP with spike mRNA, 50/10/38.5/1.5 mol % ionizable lipid:helper lipid:cholesterol:DMG-PEG2k, N-to-P ratio 6
[6] = Example 19 Study 1, LNP with SARS-CoV-2 spike mRNA, N:P 6, standard mol. ratios unless noted "opt"
[7] = Table 1, LNP lipid:DSPC:Cholesterol:DMG-PEG2k 50:10:38.5:1.5 mol %, hEPO mRNA, N:P 6
[8] = Table 10, LNP with hEPO mRNA, Lipid:DSPC:Cholesterol:DMG-PEG2k 50:10:38.5:1.5 mol %, N:P ratio 6, DLS
[9] = Table 11, LNP with hEPO mRNA, Lipid:DSPC:Cholesterol:DMG-PEG2k 50:10:38.5:1.5 mol % (ALC-0315: 46.3:9.4:42.7:1.6), N:P ratio 6, HEPES/sodium chloride/sucrose buffer, stored at −80C

## CCCCCCCCCCCOC(=O)CCCCCN(CCO)CCCCCCCC(=O)OC(CCCCCCCC)CCCCCCCC [SM-102, reference compound]
[1]; Table 1, LNP lipid:DSPC:Cholesterol:DMG-PEG2k 50:10:38.5:1.5 mol %
  Zeta potential: −3.729 mV
[1]; Table 7, LNP 50:10:38.5:1.5 mol %, helper lipid DSPC
  Zeta potential: −17.15 mV
[1]; Table 8, LNP 50:10:38.5:1.5 mol %
  Zeta potential: −9.7 mV
[1]; Table 10, Lipid:DSPC:Cholesterol:DMG-PEG2k 50:10:38.5:1.5 mol %
  Zeta potential (mV): −5.9 mV
[1]; Table 11, Lipid:DSPC:Cholesterol:DMG-PEG2k 50:10:38.5:1.5 mol % (ALC-0315: 46.3:9.4:42.7:1.6), HEPES/sodium chloride/sucrose buffer, stored at −80C
  Zeta potential (mV): −1.0 mV
[1]; [5]
  Zeta (mV): −4.1 mV
[2]; [6]
  EE (%): 91.5%
[2]; [5]
  EE (%): 97.8%
[3]; [6]
  PDI: 0.065
  Size: 94.8 nm
[3]; [7]
  PDI: 0.074
  Size: 81.8 nm
[3]; Table 7, LNP 50:10:38.5:1.5 mol %, helper lipid DSPC, hEPO mRNA, N:P 6
  PDI: 0.041
[3]; Table 7, LNP ionizable lipid:Helper Lipid:Cholesterol:DMG-PEG2k 50:10:38.5:1.5 mol %, helper lipid DSPC, hEPO mRNA, N:P 6
  Size: 75.3 nm
[3]; Table 8, LNP 50:10:38.5:1.5 mol %, hEPO mRNA, N:P 6
  PDI: 0.042
[3]; Table 8, LNP Lipid:DSPC:Cholesterol:DMG-PEG2k 50:10:38.5:1.5 mol %, hEPO mRNA, N:P 6
  Size: 80.3 nm
[3]; Table 9, LNP 50:10:38.5:1.5 mol %, hEPO mRNA, N:P 6
  PDI: 0.098
[3]; Table 9, LNP Lipid:DSPC:Cholesterol:DMG-PEG2k 50:10:38.5:1.5 mol %, hEPO mRNA, N:P 6
  Size: 80.7 nm
[3]; [8]
  PDI: 0.272
  Size (nm): 56.5 nm
[3]; [9]
  PDI: 0.087
  Size (nm): 69.6 nm
[3]; [5]
  PDI: 0.127
  Size (nm): 88.4 nm
[4]
  Apparent pKa: 7.2
